Experimental data reported in patent US11478451B1, “Macrocyclic chlorine substituted indole derivatives” (Bayer Aktiengesellschaft, priority 2017, dated 2022).
Counter-ions that a name gives are not always drawn. Like-named read-outs stand apart in the source and are kept apart here. Values belong to the compound of their own block, whether it stands above or below them.

Key:
SUDHL10 cells [1] = assay: Induction of caspase-3/7 activity (Caspase-Glo 3/7), SUDHL10; format: cell-based; conditions: Homo sapiens, SU-DHL10, 3 h, EC50, median; SUDHL10, 3 h treatment
Procedure, shortened: (§1)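 Caspase-3/7 activation serves as the apoptosis read-out for MCL-1 inhibition. Cells are treated with compound for 3 h at 37 °C and assayed with Caspase-Glo 3/7; values are corrected by subtracting medium-only background.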

SNU-389 cells = assay: Antiproliferation assay (CellTiter-Glo, 72 h), SNU-389; format: cell-based; conditions: 72 h; read-out: Antiproli SNU-389 [M] median
Method: (§2) Assessment of the Anti-Proliferative Effect of Compounds in Different Cell Lines
(§3) The impact of compounds on the proliferation of different cell lines was assessed using the CellTiter-Glo® Luminescent Cell Viability reagent from Promega (G7573).
(§4) In parallel, cells were plated in a reference (day 0) plate for time zero determination.
(§5) Rim wells were excluded. The cells were incubated for 72 h hours in a humidified incubator at 37° C. The day 0 plate was measured by adding 30 μL/well of CTG solution (CellTiter-Glo® Luminescent Cell Viability reagent, Promega G7573) to time zero wells in the reference plate followed by a 10 minutes incubation and luminescence reading at 0.1 ms. using the PHERAstar FS microplate reader (BMG Labtech).
(§6) After 72 h incubation, the treated plates were measured in the same way as the day 0 plate mentioned above.

SUDHL5 cells [2] = assay: Induction of caspase-3/7 activity (Caspase-Glo 3/7), SUDHL5; format: cell-based; conditions: EC50, median, SUDHL5, 3 h treatment
Procedure, shortened: as §1

AMO-1 cells = assay: Antiproliferation assay (CellTiter-Glo, 72 h), AMO-1; format: cell-based; conditions: Homo sapiens, AMO1, 72 h, IC50, median; AMO-1, 72 h; read-out: Antiproli AMO-1 [M] median
Procedure, shortened: (§7)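 Cells plated in treatment plates plus a day 0 reference plate; incubated 72 h at 37 °C; CellTiter-Glo added, 10 min incubation, luminescence read; day 0 plate read at time zero.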

SUDHL5 cells [3] = assay: Antiproliferation assay (CellTiter-Glo, 72 h), SUDHL5; format: cell-based; conditions: IC50, median, SUDHL5, 72 h, read-out: Antiproli SUDHL5 [M] (median)
Procedure, shortened: as §7

DMS-114 cells = assay: Antiproliferation assay (CellTiter-Glo, 72 h), DMS-114; format: cell-based; conditions: Homo sapiens, DMS-114, 72 h; read-out: Antiproli DMS-114 [M] median
Method: as §2, §3, §4, §5, §6

SUDHL5 cells [4] = assay: Induction of cytotoxicity (CellTiter-Glo, 5 h), SUDHL5; conditions: SUDHL5, 5 h
SUDHL10 cells [5] = assay: Induction of cytotoxicity (CellTiter-Glo, 5 h), SUDHL10; conditions: Homo sapiens, SU-DHL10, 5 h, read-out: Cytotox SUDHL10 [M] (median), IC50, median; SUDHL10, 5 h
HMC-1-8 cells = assay: Antiproliferation assay (CellTiter-Glo, 72 h), HMC-1-8; format: cell-based; conditions: 72 h, IC50, median; HMC-1-8, 72 h; read-out: Antiproli HMC-1-8 [M] median
Procedure, shortened: as §7

[6] = Homo sapiens, SU-DHL-5, 5 h, read-out: Cytotox SUDHL5 [M] (median), IC50, median

SMILES: CCOC(=O)c1c(CCCOc2cccc3cc(F)ccc23)c2ccc(Cl)c3c2n1CC(F)(F)CCN(S(=O)(=O)c1ccccc1[N+](=O)[O-])Cc1nn(C)c(CC)c1-3
ring closure, yield of all isomers (from CCOC(=O)c1[nH]c2c(-c3c(CN(CCC(F)(F)COS(=O)(=O)C(F)(F)F)S(=O)(=O)c4ccccc4[N+](=O)[O-])nn(C)c3CC)c(Cl)ccc2c1CCCOc1cccc2cc(F)ccc12, amine bond, NaH, DMF, 259.0 mM): 41.3%

EC50 (SUDHL10 cells [1]): 1000 nM
IC50 (SNU-389 cells): 3.79e-06 M
EC50 (SUDHL5 cells [2]): 350 nM
IC50 (SUDHL5 cells [3]): 1.1e-06 M
SMILES: Cc1c2c(nn1C)CN(CC(F)(F)F)CCCCn1c(C(=O)O)c(CCCOc3cccc4cc(F)ccc34)c3ccc(Cl)c-2c31 (single isomer, unassigned; enantiomer 1) [Example 59, 4-chloro-7-{3-[(6-fluoronaphthalen-1-yl)oxy]propyl}-2,3-dimethyl-14-(2,2,2-trifluoroethyl)-10,11,12,13,14,15-hexahydro-2H-pyrazolo[3′,4′:8,9][1,6]diazacycloundecino[10,11,1-hi]indole-8-carboxylic acid—Enantiomer 1]
IC50 (AMO-1 cells): 1.5e-06 M
IC50 (DMS-114 cells): 3.21e-06 M
IC50 (SUDHL5 cells [4]; read-out: Cytotox SUDHL5 [M] (median), IC50, median): 8e-07 M
IC50 (SUDHL10 cells [5]): 1.2e-06 M

SMILES: CCOC(=O)c1c(CCCOc2cccc3cc(F)ccc23)c2ccc(Cl)c3c2n1CCCCNCc1nn(C)c(C)c1-3
ring closure, yield of all isomers (from CCOC(=O)c1c(CCCOc2cccc3cc(F)ccc23)c2ccc(Cl)c(-c3c(CBr)nn(C)c3C)c2n1CCCCN, amine bond, Cs2CO3, DMF, 205.0 mM, 60.0 °C): 6.6%

SMILES: CCOC(=O)c1c(CCCOc2cccc3cc(F)ccc23)c2ccc(Cl)c3c2n1CC(F)(F)CCOCc1nn(C)c(CC)c1-3
ring closure, yield of all isomers (from CCOC(=O)c1[nH]c2c(-c3c(COCCC(F)(F)CO)nn(C)c3CC)c(Cl)ccc2c1CCCOc1cccc2cc(F)ccc12, amine bond, PPh3/di-tert-butyl azodicarboxylate (Mitsunobu), THF, 23.5 mM): 81.9%

SMILES: CCOC(=O)c1c(CCCOc2cccc3cc(F)ccc23)c2ccc(Cl)c3c2n1CCN(S(=O)(=O)c1ccccc1[N+](=O)[O-])CCCc1nn(C)c(CC)c1-3
ring closure, yield of all isomers (from CCOC(=O)c1[nH]c2c(-c3c(CCCN(CCOS(C)(=O)=O)S(=O)(=O)c4ccccc4[N+](=O)[O-])nn(C)c3CC)c(Cl)ccc2c1CCCOc1cccc2cc(F)ccc12, amine bond, NaH, DMF, 56.65 mM, 40.0 °C): 70.4%

SMILES: CCOC(=O)c1c(CCCOc2cccc3ccccc23)c2ccc(Cl)c3c2n1CC(F)(F)C(F)(F)COCc1nn(C)c(C)c1-3
ring closure, yield of all isomers (from CCOC(=O)c1[nH]c2c(-c3c(COCC(F)(F)C(F)(F)COS(C)(=O)=O)nn(C)c3C)c(Cl)ccc2c1CCCOc1cccc2ccccc12, amine bond, Cs2CO3, DMF, 2.12 mM): 7.6%

EC50 (SUDHL10 cells [1]): 1800 nM
EC50 (SUDHL5 cells [2]; Homo sapiens, SU-DHL-5, 3 h): 950 nM
IC50 (SUDHL5 cells [3]; Homo sapiens, SU-DHL-5, 72 h): 4.4e-06 M
SMILES: CCc1c2c(nn1C)CCCOCCn1c(C(=O)O)c(CCCOc3cccc4cc(F)ccc34)c3ccc(Cl)c-2c31 (racemic) [Example 124, (rac)-4-chloro-3-ethyl-7-{3-[(6-fluoro-1-naphthyl)oxy]propyl}-2-methyl-2,10,11,13,14,15-hexahydropyrazolo[4′,3′:7,8][1,4]oxazacycloundecino[6,5,4-hi]indole-8-carboxylic acid]
IC50 (AMO-1 cells): 8.3e-07 M
ring closure, yield of all isomers (from CCOC(=O)c1[nH]c2c(-c3c(CCCOCCO)nn(C)c3CC)c(Cl)ccc2c1CCCOc1cccc2cc(F)ccc12, amine bond, NaH, DMF, 47.5 mM, 40.0 °C, 3 steps): 63.1%
IC50 (SUDHL5 cells [4]; [6]): 1.1e-06 M
IC50 (SUDHL10 cells [5]): 2.4e-06 M
IC50 (HMC-1-8 cells): 7e-06 M

SMILES: CCOC(=O)c1c(CCCOc2cccc3cc(F)ccc23)c2ccc(Cl)c3c2n1CCC1(CC1)COCc1nn(C)c(CC)c1-3
ring closure, yield of all isomers (from CCOC(=O)c1[nH]c2c(-c3c(COCC4(CCO)CC4)nn(C)c3CC)c(Cl)ccc2c1CCCOc1cccc2cc(F)ccc12, amine bond, PPh3/di-tert-butyl azodicarboxylate (Mitsunobu), THF, 83.2 mM): 86.6%

SMILES: CCOC(=O)c1c(CCCO[Si](C)(C)C(C)(C)C)c2ccc(Cl)c3c2n1CCCCCCc1nn(C)c(CC)c1-3
ring closure, yield of all isomers (from CCOC(=O)c1[nH]c2c(-c3c(CCCCCCBr)nn(C)c3CC)c(Cl)ccc2c1CCCO[Si](C)(C)C(C)(C)C, amine bond, Cs2CO3, DMF, 71.8 mM): 99.5%

SMILES: CCOC(=O)c1c(CCCOc2cccc3cc(F)ccc23)c2ccc(Cl)c3c2n1C[C@@H]1C[C@@H]1COCc1nn(C)c(CC)c1-3 (single isomer, unassigned)
ring closure, yield of all isomers (from CCOC(=O)c1[nH]c2c(-c3c(COC[C@H]4C[C@H]4CO)nn(C)c3CC)c(Cl)ccc2c1CCCOc1cccc2cc(F)ccc12, amine bond, PPh3/di-tert-butyl azodicarboxylate (Mitsunobu), THF, 24.7 mM): 84.6%

IC50 (SNU-389 cells): 4.97e-07 M
SMILES: CCc1c2c(nn1C)CN(CCOC)CCCCn1c(C(=O)O)c(CCCOc3cccc4cc(F)ccc34)c3ccc(Cl)c-2c31 (single isomer, unassigned; enantiomer 2) [Example 133, 4-chloro-3-ethyl-7-{3-[(6-fluoronaphthalen-1-yl)oxy]propyl}-14-(2-methoxyethyl)-2-methyl-10,11,12,13,14,15-hexahydro-2H-pyrazolo[3′,4′:8,9][1,6]diazacycloundecino[10,11,1-hi]indole-8-carboxylic acid N-ethylethanamine salt (Enantiomer 2)]
IC50 (DMS-114 cells): 3.85e-07 M
IC50 (HMC-1-8 cells): 1e-06 M

EC50 (SUDHL10 cells [1]): 4600 nM
EC50 (SUDHL5 cells [2]; Homo sapiens, SU-DHL-5, 3 h): 1400 nM
IC50 (SUDHL5 cells [3]; Homo sapiens, SU-DHL-5, 72 h): 7.9e-06 M
SMILES: CCc1nn(C)c2c1-c1c(Cl)ccc3c(CCCOc4cccc5cc(F)ccc45)c(C(=O)O)n(c13)CCOCCC2 [Example 125, (rac)-4-chloro-3-ethyl-7-{3-[(6-fluoro-1-naphthyl)oxy]propyl}-1-methyl-1,10,11,13,14,15-hexahydropyrazolo[4′,3′:7,8][1,4]oxazacycloundecino[6,5,4-hi]indole-8-carboxylic acid]
IC50 (AMO-1 cells): 1.9e-06 M
ring closure, yield of all isomers (from CCOC(=O)c1[nH]c2c(-c3c(CC)nn(C)c3CCCOCCO)c(Cl)ccc2c1CCCOc1cccc2cc(F)ccc12, amine bond, NaH, DMF, 55.64 mM, 40.0 °C, 3 steps): 76.1%
IC50 (SUDHL5 cells [4]; [6]): 1.3e-06 M
IC50 (SUDHL10 cells [5]): 5.4e-06 M

SMILES: CCOC(=O)c1c(CCCOc2cccc3ccccc23)c2ccc(Cl)c3c2n1C[C@@H]1CC[C@@H]1COCc1nn(C)c(C)c1-3
ring closure, yield of all isomers (from CCOC(=O)c1[nH]c2c(-c3c(COC[C@H]4CC[C@H]4CO)nn(C)c3C)c(Cl)ccc2c1CCCOc1cccc2ccccc12, amine bond, PPh3/di-tert-butyl azodicarboxylate, THF, 14.5 mM): 34.5%

SMILES: CCOC(=O)c1c(CCCOc2cccc3cc(F)ccc23)c2ccc(Cl)c3c2n1CCC(F)(F)COCc1nn(C)c(CC)c1-3
ring closure, yield of all isomers (from CCOC(=O)c1[nH]c2c(-c3c(COCC(F)(F)CCO)nn(C)c3CC)c(Cl)ccc2c1CCCOc1cccc2cc(F)ccc12, amine bond, triphenylphosphine / di-tert-butyl azodicarboxylate, THF): 72.9%

SMILES: CCOC(=O)c1c(CCCOc2cccc3cc(F)ccc23)c2ccc(Cl)c3c2n1CCCCN(C)Cc1nn(C)c(CC)c1-3
ring closure, yield of all isomers (from CCOC(=O)c1c(CCCOc2cccc3cc(F)ccc23)c2ccc(Cl)c(-c3c(CBr)nn(C)c3CC)c2n1CCCCNC, amine bond, cesium carbonate, DMF, 214.0 mM, 60.0 °C): 22%

IC50 (SNU-389 cells): 3.85e-07 M
SMILES: CCc1c2c(nn1C)CN(CCC1CCOCC1)CCCCn1c(C(=O)O)c(CCCOc3cccc4cc(F)ccc34)c3ccc(Cl)c-2c31 (single isomer, unassigned; enantiomer 1) [Example 136, 4-chloro-3-ethyl-7-{3-[(6-fluoronaphthalen-1-yl)oxy]propyl}-2-methyl-14-[2-(oxan-4-yl)ethyl]-10,11,12,13,14,15-hexahydro-2H-pyrazolo[3′,4′:8,9][1,6]diazacycloundecino[10,11,1-hi]indole-8-carboxylic acid N-ethylethanamine salt (Enantiomer 1)]
IC50 (DMS-114 cells): 2.35e-07 M
IC50 (HMC-1-8 cells): 7.3e-07 M

SMILES: CCOC(=O)c1c(CCCOc2cccc3cc(F)ccc23)c2ccc(Cl)c3c2n1CC(F)(F)CCOCc1nn(C)c(C)c1-3
ring closure, yield of all isomers (from CCOC(=O)c1[nH]c2c(-c3c(COCCC(F)(F)CO)nn(C)c3C)c(Cl)ccc2c1CCCOc1cccc2cc(F)ccc12, amine bond, triphenylphosphine / di-tert-butyl azodicarboxylate, THF, 32.0 h): 46.9%

SMILES: CCOC(=O)c1c(CCCOc2cccc3ccccc23)c2ccc(Cl)c3c2n1CCC1(CC1)COCc1nn(C)c(CC)c1-3
ring closure, yield of all isomers (from CCOC(=O)c1[nH]c2c(-c3c(COCC4(CCO)CC4)nn(C)c3CC)c(Cl)ccc2c1CCCOc1cccc2ccccc12, amine bond, triphenylphosphine / diisopropyl azodicarboxylate, THF, 98.3 mM): 87.9%
